Results taken from patent US8551958B2, “Galactosylated pro-drugs of non-steroidal anti-inflammatories with improved pharmacokinetic characteristics and reduced toxicity of the starting drug” (Stewart Italia Srl, priority 2008, dated 2013).

Key:
[1] = Enzymatic stability in plasma, HPLC; format: in vitro ADME; conditions: plasma specimen, 37° C., in the dark; read-out: Plasma T½ (converted)
Experimental: For the stability study, the solutions of pro-drug were prepared by dissolving an aliquot of Ketogal in a phosphate buffer at pH 7.4, or else in a solution of HCl 0.1 N (pH 1), as regards chemical stability, or else in a plasma specimen, for enzymatic stability. The solutions were kept in the dark, at a temperature of 37° C., for 24 hours. After each hour an aliquot of specimen was taken. In the case of plasma, said aliquot was previously extracted with acetonitrile (1:2), “vortexed” and centrifuged at 3000 r.p.m. for 10 min. The supernatant was taken and used for analysis at HPLC with diode detector. The half-lives for chemical stability and enzymatic stability were calculated by quantizing, in time, the percentage of pro-drug that remained in solution. For the chromatographic separations, a 1090L HPLC (Hewlett-Packard, Palo Alto, USA) was used, coupled to a diode detector HP 1040A. A Phenomenex Luna C18 (250×4.6 mm, 5 μm) column was used. The wavelength used was 313 nm. The mobile phase was constituted by acetonitrile and an aqueous solution of phosphoric acid […] (pH 3) in the ratio of 68:32. The flow was 1 mL/min, with an injection volume of 20 μl. All the reagents and the solvents used were of analytical degree. The distilled and deionized water was purified by means of a Milli Q system (Millipore). […] The straight line of calibration for quantification of the compounds was constructed using standard solutions with concentrations of between 0.1 and 100 μg/ml. […]
For the study of the stability, the solutions of pro-drug were prepared by dissolving an aliquot of Flugal in a phosphate buffer at pH 7.4, as regards chemical stability, or else in a plasma specimen, for enzymatic stability. […] The half-lives for the chemical stability and enzymatic stability were calculated by quantizing, in time, the percentage of pro-drug that remained in solution. […] For the quantitative determination reading was made at 250 nm. […] The straight line of calibration for the quantification of the compounds was constructed using standard solutions with concentrations of between 0.1 and 100 μg/ml. […]

[2] = system: writhing induced by magnesium sulphate; assay: Writhing induced by magnesium sulphate (visceral pain); format: in vivo, mouse; conditions: ketorolac 0.01 to 10 mg/kg, Ketogal in equimolar dose; 1 hour before magnesium sulphate 120 mg/kg
Experimental: In order to determine whether ketorolac and Ketogal are able to inhibit visceral pain, the effects of these compounds on “writhing” induced by magnesium sulphate were tested. Magnesium sulphate induces a reversible response when injected by intraperitoneal route in the mouse. The administration of 120 mg/kg of magnesium sulphate induces an average of 6±0.9 episodes of “writhing” in the mouse (n=6).

[3] = system: mouse carrageenan paw oedema; assay: Carrageenan oedema test; format: in vivo, mice
Experimental: Anti-inflammatory activity was tested by means of the carrageenan oedema test. The mice were divided into groups of six. The initial volumes of the leg of all the animals were measured using a plethysmometer. The oedema is induced in the leg by means of sub-plantar injection of 50 μl of saline solution containing 1% of carrageenan. The volume of the leg was measured at different time intervals. Said experimental model consists of two phases: a first, acute, phase lasting 6 hours and a second, chronic, phase, up to 72 hours.
The anti-inflammatory activity of the physical mixture of ketorolac and galactose was evaluated with the carrageenan induced mice hind paw edema assay, as described for ketogal. […]
The carrageenan induced mice hind paw oedema assay described by D'Agostino et al. (2007) was used to evaluate the acute anti-inflammatory activity of the conjugate. Mice were divided into control and test groups of six animals each. Initial paw volumes of all animals were measured using a plethysmometer apparatus (Ugo Basile, Milan, Italy) before treatment. Paw oedema was induced by a subplantar injection of 50 μL of saline containing 1% λ-carrageenan into the right hind paw. […] free acid and ketogal were orally administrated 1 h before carrageenan challenge. Paw volume was measured at different time intervals by plethysmometer. The increase in paw volume was evaluated as the difference between the paw volume measured at each time point and the basal paw volume measured immediately before carrageenan injection.

male Swiss mice = assay: Chronic and sub-chronic experiments: liver, kidney and stomach examination; format: in vivo
Experimental: (§1) Animals were sacrificed and then liver, stomach and kidney were collected in glass tubes and analysed histologically and biochemically.
(§2) Liver samples were fixed in 10% buffered formalin and embedded in paraffin, sliced, and stained with hematoxylin & eosin (H&E) for assessment of liver pathology. […] To confirm histological data, western blot analysis for TNF-alpha, IL-6 and malonyldialdehyde assay were then performed in liver lysates.

IL-6 = assay: Western blot in liver lysates, IL-6; format: in vivo, mice; conditions: ketogal 16.3 mg/Kg oral for 3, 5 and 7 days
Experimental: as §1, §2

lipid peroxidation = assay: Malonyldialdehyde assay in liver lysates; format: in vivo, mice; conditions: ketogal 16.3 mg/Kg oral for 3, 5 and 7 days
Experimental: as §1, §2

PGE synthase = assay: Western blot, stomach, PGE synthase protein expression; format: in vivo, mice; conditions: ketorolac 10 mg/Kg, ketogal 16.3 mg/Kg, oral, 3, 5 and 7 days
From the text: as §1

PPAR-gamma = assay: Western blot, stomach, PPAR-gamma protein expression; format: in vivo, mice; conditions: ketorolac 10 mg/Kg, ketogal 16.3 mg/Kg, oral, 3, 5 and 7 days
From the text: as §1

## O=C(c1ccccc1)c1ccc2n1CC[C@@H]2C(=O)OCC1O[C@H](O)C(O)C(O)[C@H]1O (mixture of isomers) [Ketogal, ketorolac-D-galactos-6′-yl ester]
[1]
  half-life: 1.5 h
[2]
  Inhibition of writhing induced by magnesium sulphate: able to inhibit this response in a dose-dependent way
[3]; Ketogal 0.163 mg/kg versus ketorolac 0.1 mg/kg, oral and subcutaneous administration
  Anti-inflammatory activity compared with ketorolac: better analgesic and anti-inflammatory activity than ketorolac
[3]; Ketogal 0.163-16.3 mg/kg oral, 1 h prior to carrageenan
  Oedema of the leg: considerably reduces the oedema of the leg in a time-dependent and dose-dependent way
[3]; Ketogal 0.163-16.3 mg/kg oral, first, acute phase (6 hours)
  Formation of oedema, first phase: all the doses tested inhibited formation of oedema
[3]; Ketogal oral, second, chronic phase up to 72 hours
  Effect on oedema, second phase: continued also in the second phase
Male Swiss mice; ketogal 16.3 mg/Kg oral for 3, 5 and 7 days
  Liver histology (H&E): normal liver histology
Male Swiss mice; ketogal 16.3 mg/Kg oral for 3, 5 and 7 days, liver lysates
  Hepatic inflammation and/or damage (biochemical analysis): no hepatic inflammation and/or damage
Male Swiss mice; ketorolac 10 mg/Kg, ketogal 16.3 mg/Kg, oral, after 3, 5 and 7 days
  Kidney histology: normal kidney histology
Male Swiss mice; ketorolac 10 mg/Kg, ketogal 16.3 mg/Kg, oral, for 3 days
  Stomach samples, ulcerogenicity: undamaged and similar to control
IL-6
  IL-6 level in liver: no different compared to control mice
Lipid peroxidation
  Lipid peroxidation level in liver (malonyldialdehyde): no different compared to control mice
PGE synthase
  Gastric PGE synthase protein expression: not inhibited
PPAR-gamma
  Gastric PPAR-gamma protein expression: not inhibited
